Measurements: PubChem BioAssay (NCI)
Values joined by “and” are separate entries in the source; they are usually repeats but may differ in a detail not shown here. Equal values may be shown once.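 The compound was tested at five concentrations on cells cultured in 96-well plates, with a 48-hour exposure period. GI50: concentration for 50% inhibition of growth. TGI: concentration producing complete growth inhibition.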

Columns and labels:
Experiment in all cases: growth of human tumour cells (NCI), 48 h
786-0 renal = tested on: 786-0 renal
HCC-2998 colon = tested on: HCC-2998 colon
HCT-116 colon = tested on: HCT-116 colon
HT29 colon = tested on: HT29 colon
MDA-MB-231 breast = tested on: MDA-MB-231 breast
NCI-H522 lung = tested on: NCI-H522 lung
OVCAR-8 ovarian = tested on: OVCAR-8 ovarian
RXF 393 renal = tested on: RXF 393 renal
SF-295 CNS = tested on: SF-295 CNS
U251 CNS = tested on: U251 CNS

Structure (SMILES) | GI50 (786-0 renal) | TGI (786-0 renal) | GI50 (HCC-2998 colon) | TGI (HCC-2998 colon) | GI50 (HCT-116 colon) | TGI (HCT-116 colon) | GI50 (HT29 colon) | TGI (HT29 colon) | GI50 (MDA-MB-231 breast) | TGI (MDA-MB-231 breast) | GI50 (NCI-H522 lung) | TGI (NCI-H522 lung) | GI50 (OVCAR-8 ovarian) | TGI (OVCAR-8 ovarian) | GI50 (RXF 393 renal) | TGI (RXF 393 renal) | GI50 (SF-295 CNS) | TGI (SF-295 CNS) | GI50 (U251 CNS) | TGI (U251 CNS)
CCN(CC)CCn1nc2c3c(cccc3c1=O)-c1ccccc1-2 | 2.44 µM | 48.8 µM | 2 µM | 11 µM | 1.78 µM | > 50 µM | 1.89 µM | 13.2 µM | 4.92 µM | 19.4 µM | 2.21 µM | 9.84 µM | 2.23 µM | > 50 µM | 2.05 µM | 8.09 µM | 1.39 µM | 7.45 µM | 2.18 µM | 24.7 µM
CCN(CC)Cc1cc(Nc2c3ccc(Cl)cc3nc3c(C)cccc23)ccc1O | 1.37 µM | 2.67 µM | 1.2 µM | 2.47 µM | 0.982 µM | 2.21 µM | 0.888 µM | 2.42 µM | 1.83 µM | 3.81 µM | 0.585 µM | 1.92 µM | 1.34 µM | 3.45 µM | 1.3 µM | 2.63 µM | 1.78 µM | 3.34 µM | 1.46 µM | 2.84 µM
COc1cc2cc(C(=O)N3C[C@H](CCl)c4c3cc(O)c3ccccc43)[nH]c2c(OC)c1OC | 0.0174 µM | 0.493 µM and 0.0519 µM | 0.0286 µM | 0.654 µM and 1.13 µM | 0.0165 µM | 59 µM | 2.64 µM | 6.82 µM | – | 3.94 µM | 0.0104 µM | – | 1.67 µM | 1.13 µM and 3.53 µM | – | 0.194 µM | – | 1.23 µM | 0.019 µM | 3.23 µM and 3.06 µM
Cn1cc(C2=C(c3cccc(Cl)c3)C(=O)NC2=O)c2ccccc21 | 20.4 µM | > 25 µM | 9.59 µM | > 25 µM | > 25 µM | > 25 µM | 10.3 µM | > 25 µM | > 12.6 µM | > 25 µM | > 25 µM | > 25 µM | > 25 µM | > 25 µM | 8.22 µM | > 25 µM | > 25 µM | > 25 µM | 16.5 µM | > 25 µM
CCOC(=O)Nc1ccc2nc(Sc3ccc(Cl)cc3)sc2c1 | 8.12 µM | 40.3 µM | 15.3 µM | > 71.4 µM | 1.19 µM | 39.3 µM | 0.518 µM | 13.3 µM | 4.47 µM | 34 µM | 2.47 µM | 35.2 µM | 7.72 µM | 70.4 µM | 2.99 µM | 18.8 µM | 2.19 µM | 33.9 µM | 3.15 µM | 44.6 µM
Cc1cncc2cccc(S(=O)(=O)N3CCCNC[C@@H]3C)c12 | 14.6 µM | > 100 µM | > 88.9 µM | > 100 µM | 7.56 µM | > 100 µM | 29.3 µM | > 100 µM | 14.1 µM | 74.2 µM | > 23.1 µM | > 100 µM | 38.9 µM | > 100 µM | 1.82 µM | 19.8 µM | 4.46 µM | > 100 µM | 57.2 µM | > 100 µM
C/C(=C\COc1ccc2ccc(=O)oc2c1)CCC(=O)C(C)(C)O | – | 43.3 µM | – | 38.4 µM | – | 32.2 µM | – | 52.7 µM | – | > 100 µM | – | 43.6 µM | – | 76.3 µM | – | 39.9 µM | – | > 100 µM | – | 47.4 µM
